Here are results for one compound from PMC12051620, “Molecular basis underlying the specificity of an antagonist AA92593 for mammalian melanopsins” (The Journal of Biological Chemistry, 2025).

This experiment deals with T1, human melanopsin WT (Homo sapiens, UniProt Q9UHM6).
T1 construct: expressed in transfected cells; host or cells: COS-1
T1 sequence (Q9UHM6 1-384 limits assumed): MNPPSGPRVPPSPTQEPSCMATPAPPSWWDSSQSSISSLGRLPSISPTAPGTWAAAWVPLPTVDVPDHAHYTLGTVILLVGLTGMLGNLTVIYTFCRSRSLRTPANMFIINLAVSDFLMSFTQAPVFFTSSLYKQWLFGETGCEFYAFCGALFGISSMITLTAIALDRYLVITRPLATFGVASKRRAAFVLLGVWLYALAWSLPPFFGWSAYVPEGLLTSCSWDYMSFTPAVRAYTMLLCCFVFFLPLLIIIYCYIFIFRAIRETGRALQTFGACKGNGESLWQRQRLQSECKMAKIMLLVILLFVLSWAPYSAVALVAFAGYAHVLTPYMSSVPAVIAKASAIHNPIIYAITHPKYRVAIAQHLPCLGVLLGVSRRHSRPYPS
Briefly: GsX GloSensor assay with Gsα/q11 (light-induced cAMP response). It is filed as cell-based. To be noted: COS-1 cells. The text has this: To quantify the antagonistic effects of AA92593 on mammalian melanopsins, we used the GsX GloSensor assay ([12], [13], [14]). This assay measures GPCR-induced increases in intracellular cAMP levels even for Gq-, Gi/o-, or G12-coupled receptors by using Gsα chimeras ([12], [13], [14]). Because melanopsin is primarily coupled with Gq-type G proteins, a Gsα mutant with 11 C-terminal sequence of Gqα (Gsα/q11) was expressed in COS-1 cells with melanopsin and a luciferase-based cAMP biosensor (see “Experimental procedures”) ([15]). This assay enables the measurement of Gq activation by melanopsin as cAMP production (an increase in luminescence). In this study, we used C-terminal–truncated melanopsin constructs to increase the expression levels with minimal compromise in functionality ([9], [16], [17], [18], [19]). […] In addition, the C-terminal region is located far from the binding site of AA92593 (see below). Hereafter, the C-terminal–truncated melanopsin constructs are named as “WT.”
In the constructs for melanopsin expression (opsin name - GenBank ID: human melanopsin - NM_033282.4, mouse melanopsin - NM_013887.2, Xenopus Opn4x - NM_001085674.1, chicken opn4-1 - NM_001397961.1, B. belcheri melanopsin - AB205400.1, and B. lanceolatum melanopsin - MF464477.1), the C-terminal amino acid residues (94, 140, 200, 214, 296, and 308 residues for human ([9]), mouse ([9]), Xenopus, chicken, belcheri ([16]), and lanceolatum melanopsins, respectively) were removed, the 1D4 tag sequence (ETSQVAPA) was added, and inserted into the EcoRI/NotI site in a mammalian expression vector pMT. Jumping spider rhodopsin-1 (GenBank ID: AB251846.1) was also added with the 1D4 tag and inserted into pMT vector. Human and mouse melanopsins, and jumping spider rhodopsin-1 in pCDNA3.1 were kindly provided from Drs. Akihisa Terakita and Mitsumasa Koyanagi (Osaka Metropolitan University). In this paper, each opsin with the C-terminal sequence modifications as described above is denoted “WT.” Bovine Gsα and its mutants Gsα/q11 and Gsα/i11 (C-terminal 11 residues are replaced with Gqα and Giα, respectively) were also inserted into the pMT vector. The GFP-tagged melanopsin constructs, in which EGFP protein fused with C-termini of melanopsins, were prepared as previously described ([9], [50]). […]
For GloSensor assay, opsins, GloSensor assay sensor (coded by pGlo-22F), and NanoBiT-tagged G proteins were transiently expressed in COS-1 cells (kindly provided from Dr David Farrens, Oregon Health and Science University) using PEI as described previously ([24], [52]). […] For GFP-fluorescence microscopy, a 35-mm cell culture dish (IWAKI) was transfected with 2 μg melanopsin-GFP plasmid and 8 μg PEI in 400 μl Opti-mem and 1.2 ml D-MEM. […]

Setting [1] is: relative peak cAMP response vs no AA92593.

With `COc1ccc(S(=O)(=O)N2CCCCC2)cc1C` [AA92593], the “Hill fitting parameter rate of dose-response curve” value is −0.92 ± 0.21. Moreover, the IC50 (0.1 μM 9-cis-retinal, white light 10 s, n = 3, read-out: IC50, reduction in peak cAMP responses upon Gsα/q11 activation) turned out to be 1050 ± 280 nM. Besides, under setting [1], the “Hill fitting parameter max of dose-response curve” value turned out to be 102.59 ± 2.72 and the “Hill fitting parameter min of dose-response curve” value was found to be 13.65 ± 7.28.
